Where a name gives a salt, the structure may show the parent alone. Read-outs that look alike come from different tables or passages of the source.
Tests used:
C57 mice [1] = assay: Forced swimming experiment, intraperitoneal administration to mice; format: in vivo; details: for inhibition in vivo at 10 mg/kg: Mus musculus, ip
Method: The forced-swimming test is currently the most widely used classic method to evaluate the antidepressant effects of compounds in rodents. […] The time in immobile state of experimental animal is observed and recorded, which can be used to evaluate the effect of antidepressant compounds.
1 h and 24 h after a single intraperitoneal administration of 10 mg/kg, forced swimming tests were respectively carried out to investigate the effects of different compounds on depression-like behaviors of C57 mice.
(§1) Experimental animals were 6-week aged C57 mice, male, and C57 mice were purchased from Shanghai SLAC Laboratory Animal Co., Ltd., with a body weight of 20.45±0.19 g. Before the experiment, they arrived at the Animal Feeding Center of Shanghai Institute of Materia Medica, Chinese Academy of Sciences (Animal Production License: SCXK9[Shanghai]2004-0002, usage license: SYXK[Shanghai]2003-0029), and adapted for 3 days or more in animal facilities. They were bred at 6 animals/cage. The breeding environment was room temperature 23±0.2° C., with 12/12 hours alternation of day and night. Before the behavioral test, the animals should be moved to the behavioral test operation room 2 hours in advance to adapt to the environment and reduce their tension.
Preparation of the test product: each test compound was accurately weighed and dissolved in 0.9% NaCl solution, mixed thoroughly, and prepared as a 1 mg/ml solution, set aside.
(§2) 24 hours before the administration, the mice were placed in a cylindrical tank to adapt to the aquatic environment for 10 min. On the day of the behavioral test, the animals were respectively administered intraperitoneally once at 1 h and 24 h before the behavioral test. The mice were placed individually into a cylindrical glass tank with a height of 30 cm and a diameter of 20 cm. The water depth in the tank was 15 cm, so that the animals could not escape from the glass tank and their feet and tails could not touch the bottom of the tank, the water temperature was 23° C.-25° C. A 6 minute video was taken after the mouse entered into water. Since most animals were very active in the first two minutes, the immobility time in the following 4 minute were calculated (criterion of immobility: the mouse stops struggling in the water, stays still and has small limbs movement to maintain balance or to keep a floating state).
(§3) The antidepressant effect of a compound was evaluated by the ability of the compound to reduce the immobility time of the animal in the forced swimming test as compared with the blank group. The shorter the immobility time of the animal to be tested, the higher the inhibition rate and the stronger the antidepressant activity. Inhibition rate1 h(%)=immobility time(blank, 1 h)−immobility time(administration, 1 h)/immobility time(blank, 1 h)×100% Inhibition rate24 h(%)=immobility time(blank, 24 h)−immobility time(administration, 24 h)/immobility time(blank, 24 h)×100%

C57 mice [2] = assay: Forced swimming experiment, oral administration to mice; format: in vivo; details: for 1 h inhibition rate / 24 h inhibition rate: inhibition of immobility time, C57 mice; for 1 h inhibition rate: forced swimming 1 h after single oral (intragastric) 20 mg/kg; for 24 h inhibition rate: forced swimming 24 h after single oral (intragastric) 20 mg/kg
Method: 1 h and 24 h after a single oral administration of 20 mg/kg, forced swimming experiments were then carried out to investigate the effects of different compounds on depression-like behavior in C57 mice.
as §1, with “male,” for “male, and”
Preparation of the test product: each test compound was accurately weighed and dissolved in 0.9% NaCl solution, mixed thoroughly, and prepared into 1 mg/ml and 2 mg/ml solutions respectively, and set aside.
as §2, with “intragastrically” for “intraperitoneally”
as §3, with “group.” for “group. The shorter the immobility time of the animal to be tested, the higher the inhibition rate and the stronger the antidepressant activity.”, “rate24h(%)=immobility” for “rate24 h(%)=immobility”

[3] = 1 h, read-out: 1 h inhibition rate
[4] = 24 h, read-out: 24 h inhibition rate

With `Cl.NC1(c2cc(F)ccc2F)CCCC(O)C1=O` (stereo not shown) [Comparative compound 1, reference compound] the inhibition in vivo at 10 mg/kg (C57 mice [1]; [3]) was 17.4%, the inhibition in vivo at 10 mg/kg (C57 mice [1]; [4]) was 10.6% and the “1 h inhibition rate” value (C57 mice [1]; inhibition of immobility time, forced swimming 1 h after single intraperitoneal 10 mg/kg, C57 mice) was 17.4 ± 0.2%. For the same compound, the “24 h inhibition rate” value (C57 mice [1]; inhibition of immobility time, forced swimming 24 h after single intraperitoneal 10 mg/kg, C57 mice) was 10.6 ± 1.2%.
`CNC1(c2cccc(OC(F)(F)F)c2)CCCC(O)C1=O` (stereo not shown) [Compound 39, 6-hydroxy-2-methylamino-2-(3-trifluoromethoxyphenyl)cyclohexane-1-one hydrochloride] showed an inhibition in vivo at 10 mg/kg (C57 mice [1]; [3]) of 46.6 ± 1% and an inhibition in vivo at 10 mg/kg (C57 mice [1]; [4]) of 49.1 ± 3.7%.
`N#Cc1cccc(C2(N)CCCC(O)C2=O)c1` (stereo not shown) [Compound 53, 3-(1-amino-3-hydroxy-2-oxocyclohexane)benzonitrile trifluoroacetate] was tested, and the inhibition in vivo at 10 mg/kg (C57 mice [1]; [3]) was 50.9 ± 2% and the inhibition in vivo at 10 mg/kg (C57 mice [1]; [4]) was 39.6 ± 3.2%.
For `Cl.NC1(c2cccc(OC(F)(F)F)c2F)CCCC(O)C1=O` (stereo not shown) [Compound 59, 2-amino-2-(2-fluoro-3-(trifluoromethoxy)phenyl)-6-hydroxycyclohexane-1-one hydrochloride], the inhibition in vivo at 10 mg/kg (C57 mice [1]; [3]) was 32 ± 2.2%, the inhibition in vivo at 10 mg/kg (C57 mice [1]; [4]) was 40.3 ± 4.9% and the “1 h inhibition rate” value (C57 mice [2]) was 28.6 ± 1.8%. For the same compound, the “24 h inhibition rate” value (C57 mice [2]) was 36.1 ± 1.6%.
`Cl.N[C@]1(c2cccc(OC(F)(F)F)c2F)CCC[C@H](O)C1=O` [Compound 65, (2S,6S)-2-amino-2-(2-fluoro-3-(trifluoromethoxy)phenyl)-6-hydroxycyclohexane-1-one hydrochloride] was tested, and the “1 h inhibition rate” value (C57 mice [2]) was 23.8 ± 0.6% and the “24 h inhibition rate” value (C57 mice [2]) was 32.0 ± 2.9%.
`NC1(c2c(F)ccc(F)c2F)CCCC(O)C1=O` (stereo not shown) [Compound 71, 2-amino-6-hydroxy-2-(2,3,6-trifluorophenyl)cyclohexane-1-one hydrochloride] gave an inhibition in vivo at 10 mg/kg (C57 mice [1]; [3]) of 24.2 ± 4.7% and an inhibition in vivo at 10 mg/kg (C57 mice [1]; [4]) of 57.4 ± 4.4%.
For `CNCCC(Oc1ccc(C(F)(F)F)cc1)c1ccccc1` (stereo not shown) [Fluoxetine, fluoxetine, reference compound], the “antidepressant effect in the forced swimming experiment” value (C57 mice [1]; 1 hour and 24 hours, intraperitoneal 10 mg/kg, in words) was “no obvious antidepressant effect”, the inhibition in vivo at 10 mg/kg (C57 mice [1]; inhibition of immobility time, forced swimming 1 h after single intraperitoneal 10 mg/kg, C57 mice, read-out: 1 h inhibition rate) was -4.6 ± 2.3% and the inhibition in vivo at 10 mg/kg (C57 mice [1]; inhibition of immobility time, forced swimming 24 h after single intraperitoneal 10 mg/kg, C57 mice, read-out: 24 h inhibition rate) was 4.6 ± 1.8%. For the same compound, the “antidepressant effect in the forced swimming experiment” value (C57 mice [2]; 1 hour and 24 hours, oral administration, in words) was “no antidepressant effect was shown”, the “1 h inhibition rate” value (C57 mice [2]) was 2.2 ± 1.2% and the “24 h inhibition rate” value (C57 mice [2]) was 1.8 ± 1.3%.
